In BigSolDB 2.1:

Oc1ccc(OCc2ccccc2)cc1
solubility (mole fraction)
Details | 283.15 K | 288.15 K | 293.15 K | 298.15 K | 303.15 K | 308.15 K | 313.15 K
in 1,4-dioxane | – | 0.0903 | 0.131 | 0.19 | 0.258 | 0.342 | 0.435
in acetonitrile | 0.036 | 0.0447 | 0.0546 | 0.0669 | 0.0821 | 0.101 | 0.125
in cyclohexane | 0.000542 | 0.000933 | 0.00156 | 0.00261 | 0.00396 | 0.0058 | 0.00802
in ethanol | 0.0319 | 0.0396 | 0.0484 | 0.0595 | 0.0735 | 0.0905 | 0.111
in ethyl acetate | 0.0773 | 0.129 | 0.201 | 0.293 | 0.399 | 0.519 | 0.632
in isopropanol | 0.0317 | 0.0383 | 0.0476 | 0.0585 | 0.0736 | 0.0921 | 0.116
in methanol | 0.0381 | 0.0476 | 0.0593 | 0.0739 | 0.0908 | 0.111 | 0.136
in n-butanol | 0.0227 | 0.0282 | 0.0346 | 0.0434 | 0.0543 | 0.0666 | 0.0835
in n-hexane | 0.000327 | 0.000453 | 0.000749 | 0.00108 | 0.00161 | 0.00226 | 0.00313
in n-octanol | 0.00719 | 0.0101 | 0.0136 | 0.0171 | 0.0224 | 0.0289 | 0.0355
in n-propanol | 0.0287 | 0.0352 | 0.0428 | 0.0521 | 0.0642 | 0.0794 | 0.0994
in water | 5e-06 | 7e-06 | 9e-06 | 1.3e-05 | 1.7e-05 | 2.3e-05 | 3e-05
